Source: ChEMBL document CHEMBL3507680, “University of Dundee, Gates Library screen for HepG2 cell viability”

experiment: Human HepG2 cell viability assay in 384 well format; format: toxicity, cell-based; set-up: dose 125 nL, time 70.5 hour; concentration not given beside the values; details: HepG2 cells, read-out: Inhibition

| Compound | cytotoxicity at 70.5 h [%] |
| --- | --- |
| CCn1nc(C)c(S(=O)(=O)Nc2cccc(C(=O)O)c2C)c1C | -2.69 |
| Cc1noc(-c2ccnc(N3CCC(CN4CCOCC4)CC3)c2)n1 | 11 |
| CS(=O)(=O)Cc1ccc(NC(=O)Cc2cccnc2)cc1F | -4.71 |
| CN(C)C(=O)c1ccc(OC2CCCC2)cc1 | -7 |
| Cc1cccc(C(C)NCC2CCS(=O)(=O)CC2)c1 (configuration not stated) | -3.65 |
| CC(C)COC(C)C(=O)N1CCCCCC1 (configuration not stated) | -8.79 |
| CC(C)COC(C)C(=O)N1CCCCC1 (configuration not stated) | -3.46 |
| c1cnn(CC2CN(CCCOc3ccc4c(c3)OCO4)CCO2)c1 (configuration not stated) | -8.43 |
| COCCCn1ccc(NC(=O)NCCCNc2ccccc2)n1 | -3.49 |
| CC(=O)Nc1cccc(C(C)NCC2CCS(=O)(=O)CC2)c1 (configuration not stated) | -3.86 |
| CC(NCC1CCS(=O)(=O)CC1)c1cccc(OC(F)F)c1 (configuration not stated) | -6.96 |
| CCN(CC)CCNC(=O)c1ccc(Cl)c(NS(C)(=O)=O)c1 | 4.61 |
| CCOc1ncccc1CNS(=O)(=O)N1CCOCC1 | 15.2 |
| O=S(=O)(NCC1CCOC1)N1CCc2ccccc2C1 (configuration not stated) | -0.92 |
| O=C(NCCNc1cnccn1)c1scnc1Cl | -8.29 |
| CS(=O)(=O)c1ccc(NC(=O)CSC(F)(F)F)cn1 | 20.8 |
| Cc1noc(C)c1CNC(=O)C(C)Oc1ccccc1F (configuration not stated) | -4.89 |
| CNC(=O)NC(=O)CN1CCCN(CC(F)(F)F)CC1 | -7.82 |
| Cc1noc(OCc2ccc(C#N)cc2)n1 | -0.0296 |
| CC1(C)CN(C(=O)Nc2ccc(Cn3cccn3)cc2)CCO1 | -3.49 |
| Cc1noc(OCCOc2ccc(C#N)cc2)n1 | 5.31 |
| O=C(C[S+]([O-])Cc1cccc(C(F)(F)F)c1)NC1CCCC1 (configuration not stated) | -8.39 |
| O=C(C[S+]([O-])Cc1ccc(F)cc1Cl)NC1CCCC1 (configuration not stated) | -6.82 |
| COc1ccc(-c2ccc(C(=O)O)c(F)c2)c(F)c1 | 27.5 |

| Compound | cytotoxicity at 70.5 h [%] |
| --- | --- |
| NS(=O)(=O)NCC1(c2ccccc2Br)CC1 | 0.0399 |
| CCN(C)S(=O)(=O)NCC1(c2ccccc2Br)CC1 | 4.86 |
| CCc1cc(N2CCC(NC(=O)CCC3CCCO3)CC2)ncn1 (configuration not stated) | 25.3 |
| Cc1cc(N2CCC(NC(=O)CCc3ccco3)CC2)nc(C)n1 | 11.4 |
| Cn1c(=O)oc2cc(Nc3nccnc3C#N)ccc21 | -2.2 |
| CN(C)CCNC(=O)Nc1cccc(C[S+]([O-])Cc2ccccc2)c1 (configuration not stated) | -2.04 |
| CC1(C)CN(CC(F)(F)F)CCN1CC(=O)NC1CC1 | -6.02 |
| CC(NC(=O)c1cccs1)C(=O)NS(=O)(=O)c1ccc(C#N)cc1 (configuration not stated) | -5.58 |
| COc1c(CNCc2cccnc2OC2CCCC2)c(C)nn1C | -1.47 |
| COc1ccc(Cl)cc1-c1cc(NC(=O)CNC(=O)C2CC2)[nH]n1 | -7.16 |
| CCN(C(=O)CN(Cc1cccc(O)c1)C1CCC(O)CC1)C1CC1 (configuration not stated) | -2.83 |
| N#Cc1ccsc1C(=O)N1CCCCC1Cn1cccn1 (configuration not stated) | 9.01 |
| CN1CCN(CCCN(C)S(=O)(=O)C2CCCCC2)CC1 | -1.58 |
| CCc1ccc(C(COC)NC(=O)c2ccc(O)nc2)o1 (configuration not stated) | -6.34 |
| COC(=O)NCc1ccc(NC(=O)CC2=CCCCC2)cc1 | 0.0251 |
| COCC(NC(=O)c1ccoc1)c1ccc(C)o1 (configuration not stated) | -2.43 |
| CCC(C)(NCc1ncc(C(C)C)o1)c1nccs1 (configuration not stated) | 1.37 |
| CCC1CN(C(=O)COc2ccc(C)nc2)CCO1 (configuration not stated) | 0.326 |
| CC(Cn1cccn1)NC(=O)NCCCN1CCc2ccccc21 (configuration not stated) | -0.512 |
| CC(=O)NCCCNCc1cc(F)ccc1Br | 15 |
| CCOC(=O)NC1CCCN(Cc2ccc(-n3cncn3)c(C)c2)C1 (configuration not stated) | -0.7 |
| CN(C)C(=O)COc1ccccc1CN1CCOC2(CCCC2)C1 | 0.31 |
| CN1CCN(c2ccc(NC(=O)c3ccccn3)c(C(F)(F)F)c2)CC1 | -5.99 |
| CCN1CCN(CC(O)c2cc(Cl)ccc2Cl)CC1 (configuration not stated) | -8.52 |

| Compound | cytotoxicity at 70.5 h [%] |
| --- | --- |
| Cc1ccc(-c2nn3c(nc2=O)-c2ccccc2NC3C(=O)O)cc1C (configuration not stated) | 3.4 |
| OCCN1CCN(CC(O)c2cc(Cl)ccc2Cl)CC1 (configuration not stated) | -3.64 |
| COc1ccccc1C(C)Nc1ncc(C(N)=O)cc1Cl (configuration not stated) | -9.04 |
| COc1ccc(C(C)Nc2ncc(C(N)=O)cc2Cl)cc1OC (configuration not stated) | -10.8 |
| O=C(CSc1nnc[nH]1)NCc1sccc1Br | -5.23 |
| Cc1ccccc1C(NC(=O)CNC(=O)c1ccoc1C)C(C)C (configuration not stated) | 11.7 |
| Cc1cc(N2CCCC(OC(=O)CCc3cnn(C)c3)C2)nc(C)n1 (configuration not stated) | -11.2 |
| Cc1cc(CS(=O)(=O)NC2CCCc3ccccc32)on1 (configuration not stated) | -1.17 |
| CN(C)CCN(C)C(=O)Nc1cc(F)cc(N2CCCC2)c1 | -6.32 |
| CC(C#N)NS(=O)(=O)c1ccc2c(c1)N(C)CCC2 (configuration not stated) | -0.913 |
| CC(=O)NS(=O)(=O)c1ccc2c(c1)N(C)CCC2 | -5.49 |
| Cc1cccc(NS(=O)(=O)c2ccc(C#N)nc2)c1C#N | -4.92 |
| CCOCC(=O)N(C)c1ccc(F)c(Cl)c1 | -2.55 |
| CN1CCCc2ccc(S(=O)(=O)NC(=O)C3CC=CC3)cc21 | -3.77 |
| Cc1noc(C)c1CN(C)C(C)c1cccs1 (configuration not stated) | -3.21 |
| Cc1ccc(NC(=O)N2CCCC(O)C2)c(Br)c1 (configuration not stated) | 6.64 |
| CC(C)(C)NC(=O)C1CSCN1C(=O)CCc1ccco1 (configuration not stated) | -0.786 |
| CC(C)NC(=O)Nc1ccc(-c2nc(C(C)C)no2)cc1 | -8.44 |
| CC(C)N(C(=O)CCc1cccc(F)c1)C1CCOCC1 | -4.3 |
| CC(C)c1noc(-c2ccc(NC(=O)NCC(O)C(C)C)cc2)n1 (configuration not stated) | -7.09 |
| CC(=O)N(C)Cc1cccc(NC(=O)N(C)Cc2nccs2)c1 | -4.8 |
| CCc1cnc(NC(=O)NC2CCN(C3CCCC3)CC2)s1 | -7.06 |
| O=C(c1c[nH]c2ccccc2c1=O)N1CCSCC1 | -6.3 |
| O=C(c1c(F)cc(Br)cc1F)N1CCc2cnccc21 | -5.62 |

| Compound | cytotoxicity at 70.5 h [%] |
| --- | --- |
| O=C(c1c(O)cc(F)cc1F)N1CCc2cnccc21 | 0.9 |
| CC(C)CSCCCNC(=O)C1CCOC1 (configuration not stated) | -5.76 |
| Cc1cc(CNCCNS(C)(=O)=O)sc1Br | 4.81 |
| CC(NCc1cccs1)c1ccc(OCc2nccn2C)cc1 (configuration not stated) | -4.31 |
| CC(=O)N(C)Cc1cccc(NC(=O)N(C)CCc2cccs2)c1 | 11.4 |
| Cc1cccc(CC(=O)Nc2cccnc2N2CCC(CO)CC2)c1 | -2.43 |
| Cc1[nH]ncc1CCCNC(=O)N1CCOC(C)C1 (configuration not stated) | -5.97 |
| COCCC1(CNC(=O)NCC2CN(C)CCN2C)CCC1 (configuration not stated) | -2.66 |
| Cc1cc(CN2CCN(C(=O)NCCCc3cn[nH]c3C)CC2)on1 | -4.02 |
| CSCCC(NC(N)=O)C(=O)NCc1c(C)nn(-c2ccccc2)c1C (configuration not stated) | -4.27 |
| CCNC(=O)NC(=O)CN1CCOC(c2cccc(Br)c2)C1 (configuration not stated) | -8.56 |
| Cc1cccc(C(C)(C)CNC(=O)CN(C)S(=O)(=O)c2cccnc2)c1 | -15.3 |
| CN(CCc1nc2ccccc2c(=O)[nH]1)CCC(F)(F)F | -6.6 |
| CC(=O)N1CCC(NC(=O)NCCCc2cn[nH]c2C)CC1 | 0.436 |
| NS(=O)(=O)c1cnc(NCC2(c3cccc(F)c3)CCOCC2)s1 | -0.912 |
| NS(=O)(=O)c1cnc(NCC2(c3ccccc3)CCC2)s1 | -2.17 |
| CCN1CCNC(=O)C12CCN(C(=O)Cc1ccccn1)CC2 | -1.44 |
| COc1cc(N2CCC3(CC2)CN(CCO)c2ccccc23)ncn1 | -0.577 |
| O=c1ccc2c([nH]1)CCC(NS(=O)(=O)C1CC1)C2 (configuration not stated) | -4.74 |
| COCCn1c2c(ccc1=O)CCN(C(=O)C1CC=CC1)CC2 | -2.63 |
| CN(C)Cc1nc(-n2cnc(C(=O)NCC3CC3)c2)n2ccccc12 | -3.22 |
| COCCn1c2c(ccc1=O)CCN(C(=O)NC1CC1)CC2 | -3.9 |
| Cc1ccc2c(n1)N(Cc1cccnc1)CCN(Cc1cnn(C)c1)C2 | -2.59 |
| COCC(=O)N1CCc2ccc(=O)n(CC3CC3)c2CC1 | -2.86 |

| Compound | cytotoxicity at 70.5 h [%] |
| --- | --- |
| CC(C)NC(=O)N1CCC2(CC1)Cc1ccccc1CNC2=O | -4.51 |
| Cc1cc(C(=O)NCC2OCCc3cn(CC4CC4)nc32)c(C)[nH]1 (configuration not stated) | -3.07 |
| COCCn1cc2c(n1)C(CNC(=O)c1cc(C)[nH]c1C)OCC2 (configuration not stated) | -2.66 |
| CN(C)Cc1nc(-n2cnc(C(=O)NC3CCCC3)c2)n2ccccc12 | -3.17 |
| Cc1nc(CN2CCC3(C2)CN(C(=O)c2conc2C)C3)cs1 | -3.94 |
| O=C(c1ccccc1)N1CCOC2CNCC[C@H]21 (some centres not stated) | -7.04 |
| COc1c(CNC2(c3noc(C)n3)CCC2)c(C(C)C)nn1C | -0.972 |
| Cc1sc(CN)nc1-c1ccc(Cl)cc1 | 4.14 |
| O=C([C@H]1CCCN1)N1CC2(CCNCC2)c2cc(Cl)ccc21 | 30 |
| O=C([C@@H]1CSCN1)N1CC2(CCNCC2)c2cc(Cl)ccc21 | -3.25 |
| CCOC1COC2(CCN(C(=O)c3cccc(C)n3)CC2)C1 (configuration not stated) | -0.53 |
| CNC(=O)[C@H]1C[C@@H]2CN(Cc3csc(C)n3)C[C@@H]2N1S(C)(=O)=O | 27.8 |
| CN(C)CC(=O)N1CCC2(CC1)Cc1ccccc1CN(C)C2=O | 23.3 |
| CC(=O)N1CCC2(CC1)CN(C(=O)[C@@H]1CSCN1)c1ccc(Cl)cc12 | 1.24 |
| O=C(c1cscn1)N1CCCC2(CCN2Cc2cccc(F)c2)C1 (configuration not stated) | -0.0272 |
| Cc1nc(CN2CCO[C@@H]3CC(COc4ccccn4)C[C@H]32)cs1 (some centres not stated) | -1.88 |
| Cc1cc(C(=O)N2CC[C@H]3[C@H](C[C@@H](CN4CCCC4)N3C)C2)c(C)o1 | 1.81 |
| c1cnc(N2CCN3C[C@H](Oc4cncnc4)C[C@H]3C2)nc1 | -1.15 |
| CN(C)C(=O)C1CCN(C2CCN(CC3CCC3)CC2)CC1 | -1.7 |
| Cc1oncc1C(=O)N1CC[C@H]2[C@H](C[C@@H](CN(C)C)N2CC2CC2)C1 | -0.907 |
| O=C(O)c1c(-c2cncnc2)ncc2c1CCN(Cc1cccnc1)C2 | 2.19 |
